Columns and labels:
[1] = biological target: T1, Cdc42 (cell division cycle 42) (Homo sapiens, UniProt P60953); experiment: SPR (Biacore 8K, Cdc42 immobilized on CM5 chip), positive control; assay type: binding
T1 construct: recombinant Cdc42 protein (230-00660-100, RayBio)
Description: SPR (Biacore 8K, Cdc42 immobilized on CM5 chip), positive control on Cdc42 (cell division cycle 42) | We used ZCL278, a well‐known Cdc42 binding compound, as a positive control in SPR experiments

[2] = biological target: T1, Cdc42 (cell division cycle 42); experiment: SPR (Biacore 8K, Cdc42 immobilized on CM5 chip); supported by CETSA and TPP in NRK-49F cells; assay type: binding

T1 sequence (P60953 1-188): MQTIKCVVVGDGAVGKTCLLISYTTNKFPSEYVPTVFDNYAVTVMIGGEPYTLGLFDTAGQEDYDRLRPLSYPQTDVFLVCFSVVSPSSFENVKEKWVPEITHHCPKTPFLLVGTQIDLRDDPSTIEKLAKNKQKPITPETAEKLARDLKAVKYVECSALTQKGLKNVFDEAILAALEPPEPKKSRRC

For `Cc1cc(C)nc(NS(=O)(=O)c2ccc(NC(=S)NC(=O)COc3ccc(Br)cc3Cl)cc2)n1` [ZCL278], which Kd [1] is on record?
The Kd was 18.6 µM.

For `C=C(C)[C@]12C[C@@H](C)[C@]34OC5(CCCCCCC[C@H](C)[C@@H]6[C@@H]3[C@@](O)(C(=O)[C@@]6(C)O)[C@H](O)[C@@]3(CO)O[C@H]3[C@H]4[C@H]1O5)O2` [compound 15, daphnepedunin A], which Kd [2] is on record?
The Kd was 15.6 µM.

Reference: paper PMC10987128, “A Natural Small Molecule Mitigates Kidney Fibrosis by Targeting Cdc42‐mediated GSK‐3β/β‐catenin Signaling” (Advanced Science, 2024)
